Assay results reported in US20230381183A1, “USE OF FOLIC ACID AND FOLATE MODIFICATION IN INDUCING B-CELL IMMUNE TOLERANCE AND TARGETING mIgM-POSITIVELY-EXPRESSED B-CELL LYMPHOMA” (FUDAN UNIVERSITY, priority 2020, published 2023).
Blank lines part the entries; values can stand above or below the compound they belong to. Where no end group is shown, it is not given here.

What was measured:
[1] = Water solubility (observation on preparation); assay type: physicochemical
[2] = system: OVA-specific IgG; test: Oral folic acid: serum OVA-specific IgG by ELISA; assay type: in vivo, BALB/c female mice
Experimental: The BALB/c female mice (5 weeks old) were randomly divided into 4 groups, with 6 mice in each group, and were treated as follows: (1) FA(ig) group: each mouse was administered with 3 mg free folic acid by gavage every day for two weeks: (2) FA(ig)+OVA group: each mouse was administered with 3 mg free folic acid by gavage every day for two weeks, and was administered with OVA via tail vein injection on day 0 and day 7 respectively (10 μg/mouse): (3) OVA group: each mouse was administered with OVA via tail vein injection on days 0 and day 7 respectively (10 μg/mouse); (4) Physiological saline group: each mouse was administered with physiological saline via tail vein injection on day 0 and day 7 respectively. Then, on days 14, 21 and 28, all mice were administered with 100 μl mixed solution of OVA and KLH (hemocyanin) in water (100 μg/mL OVA and 100 ug/mL KLH). The serum was collected before the administration of the mixed solution on days 14, 21 and 28 and on day 35. The specific antibodies in the serum were detected by ELISA. […] The immune function of the body recovered when the administration of FA is discontinued.

[3] = system: KLH-specific antibodies; test: Oral folic acid: serum KLH-specific antibodies by ELISA; assay type: in vivo, BALB/c female mice; details: FA(ig) group vs physiological saline group; days 21, 28, 35
Experimental: The BALB/c female mice (5 weeks old) were randomly divided into 4 groups, with 6 mice in each group, and were treated as follows: (1) FA(ig) group: each mouse was administered with 3 mg free folic acid by gavage every day for two weeks: (2) FA(ig)+OVA group: each mouse was administered with 3 mg free folic acid by gavage every day for two weeks, and was administered with OVA via tail vein injection on day 0 and day 7 respectively (10 μg/mouse): (3) OVA group: each mouse was administered with OVA via tail vein injection on days 0 and day 7 respectively (10 μg/mouse); (4) Physiological saline group: each mouse was administered with physiological saline via tail vein injection on day 0 and day 7 respectively. Then, on days 14, 21 and 28, all mice were administered with 100 μl mixed solution of OVA and KLH (hemocyanin) in water (100 μg/mL OVA and 100 ug/mL KLH). The serum was collected before the administration of the mixed solution on days 14, 21 and 28 and on day 35. The specific antibodies in the serum were detected by ELISA. […] The results also confirmed that the immune function of the body recovered when the administration of FA is discontinued.

[4] = system: antibodies against infliximab; test: Serum antibodies against infliximab by ELISA; assay type: in vivo, BALB/c female mice; details: FA gavage+infliximab group: 3 mg free folic acid per day for two weeks, infliximab 60 μg/mouse iv days 0, 7, 14; serum day 21
Experimental: The BALB/c female mice (6 weeks old) were randomly divided into infliximab group, FA gavage+infliximab group and physiological saline group, with 5 mice in each group. For the infliximab group, a dose of 60 μg antibody/mouse was administrated via tail vein injection on days 0, 7 and 14. For the FA gavage+infliximab group, each mouse was administered with 3 mg free folic acid by gavage per day for two weeks, and infliximab was administered via tail vein injection at a dose of 60 μg antibody/mouse on days 0, 7 and 14. For the physiological saline group, the mice were injected with physiological saline via tail vein on days 0, 7 and 14. One week after the last administration (day 21), the serum was collected from the mice, and was measured by ELISA for the antibodies against infliximab.

[5] = system: antibodies against trastuzumab; test: Serum antibodies against trastuzumab by ELISA; assay type: in vivo, BALB/c female mice; details: FA gavage+trastuzumab group: 3 mg free folic acid per day for two weeks, trastuzumab 60 μg/mouse iv days 0, 7, 14; serum day 21
Experimental: For the FA gavage+trastuzumab group, each mouse was administered by gavage with 3 mg free folic acid per day for two weeks, and trastuzumab was administered via tail vein injection at a dose of 60 μg antibody/mouse on days 0, 7 and 14. For the physiological saline group, the mice were injected with physiological saline via tail vein on days 0, 7 and 14. One week after the last administration (day 21), the serum was collected from the mice, and was measured by ELISA for the antibodies against trastuzumab.

[6] = system: antibodies against sLip; test: Serum antibodies against liposomes (sLip) by ELISA; assay type: in vivo, BALB/c female mice; details: mixed solution of liposome 5 mg/kg and 10 μg or 50 μg FA, single dose tail vein; serum 5 days after
Experimental: Liposomes (sLip) were prepared firstly. HSPC. Chol and mPEG2000-DSPE (all purchased from AVT (Shanghai) Pharmaceutical Tech Co., Ltd.) were weighted in a molar ratio of 52:43:5. The film materials were dissolved in 5 mL chloroform, and the mixture was subjected to rotary evaporation under reduced pressure to remove chloroform, to obtain a uniform lipid film. Residual organic solvent was removed by vacuum drying overnight. Shaking in a water bath at 60° C. was performed until the liposome membrane is completely hydrated to obtain white liposome suspension. The liposome suspension went through 200 and 100 nuclear pore membrane by a micro-extruder sequentially, to obtain a liquid with pale blue opalescence, i.e., a liposome (sLip) solution.
The BALB/c female mice (6 weeks old) were randomly divided into sLip group, sLip+FA (10 μg) group, sLip+FA (50 μg) group and physiological saline group, with 4 mice in each group. For the sLip group, the liposome solution (5 mg liposome/kg mouse body weight) was administered in a single dose via tail vein. For sLip+FA([…]) group, a mixed solution of liposome (5 mg liposome/kg mouse body weight) and 10 μg FA was administered in a single dose via tail vein. […] Serum was collected from all mice 5 days after administration, and was measured by ELISA for the concentrations of the antibodies against sLip.

[7] = system: Anti-Drug Antibodies (ADAs); details: phase I single-dose study, healthy subjects; cited from earlier work
[8] = system: experimental autoimmune encephalomyelitis (EAE) model; test: Experimental autoimmune encephalomyelitis (EAE) model; assay type: in vivo, female C57/BL6 mice; details: 10 μg/mouse iv once a week x3 before PLP emulsion induction
Experimental: The efficacy of folate modification in autoimmune encephalomyelitis was investigated using an experimental autoimmune encephalomyelitis (EAE) model. The model was established as follows: the animals were injected with whole protein or protein fragment (e.g., PLP polypeptide) that induces nerve cell myelin sheath and peripheral protein, causing inflammation and demyelination symptoms and inducing the autoimmune response of the animal: thereby the injected self-proteins are regarded as foreign objects and cause the immune system to attack the self myelin sheath.
The female C57/BL6 mice were intravenously injected with PLP polypeptide (amino acid sequence. […]) or folate-PLP complex (FA-PLP) at a dose of 10 μg/mouse, once a week for three times in total. One week later, the emulsion of PLP polypeptide in Freund's complete adjuvant was prepared, the concentration of PLP being 1 μg/μL. Four points were set up on both sides of the back of the mouse, and 0.05 mL PLP emulsion was injected subcutaneously at each point to induce inflammation, 2 and 24 hours after PLP injection, 150 ng pertussis toxin was injected intraperitoneally. The incidence in the mice was observed every day, and the mice were scored according to the 5-point scoring standard (Kono method). The incidence scoring curve was plotted.

water solubility [1]: insoluble in water
Compound: Nc1nc2ncc(CNc3ccc(C(=O)N[C@@H](CCC(=O)O)C(=O)O)cc3)nc2c(=O)[nH]1 [folic acid]
level of OVA-specific IgG in the serum ([2]; day 28, FA(ig)+OVA group, after FA discontinued): comparable to that in the OVA group
level of OVA-specific IgG in the serum ([2]; days 14 and 21, FA(ig)+OVA group: 3 mg free folic acid by gavage daily for two weeks, OVA 10 μg/mouse iv day 0 and 7): significantly lower than that in the OVA group
levels of KLH-specific antibodies in serum [3]: similar
level of antibodies against infliximab [4]: significantly lower than that in the infliximab group
level of antibodies against trastuzumab [5]: significantly lower than that in the trastuzumab group
production of the antibodies against liposomes (sLip) [6]: effectively reduce the production of the antibodies against liposomes, and the effect increases as the concentration of folic acid increases

Compound: adalimumab
incidence of ADAs [7]: 70-100%

Compound: FA-PLP: folate-modified PLP polypeptide HSLGKWLGHPDKF (also: folate conjugate, site not given here)
immune tolerance to PLP / inflammatory response (incidence score, Kono method) [8]: causes the body's immune tolerance to PLP and contributes to reducing the inflammatory response
